Test results from ChEMBL document CHEMBL6134827, “The discovery of novel antimicrobial peptides against drug-resistant bacteria based on fragments fusion strategy” (Eur J Med Chem, 2025).
Calls of active or inactive are those of the source. No cut-off for these calls is given here. Non-standard residues stand in square brackets, D forms with d. Residues, ends and D or L forms follow the SMILES beside them. Dab = NCC[C@H](N)C(=O)O

Experiments:
Escherichia coli [1] = test: Antimicrobial activity against Escherichia coli ATCC 25922 assessed as inhibition of visible microbial growth incubated for 18 hrs by broth microdilution method; type: functional
Pseudomonas aeruginosa [2] = test: Antibacterial activity against multidrug resistant Pseudomonas aeruginosa assessed as reduction in bacterial growth at 32 microg/mL measured after 1.5 hrs by bactericidal kinetic assay relative to control; type: functional; set-up: scale not given: the % may be the effect or the level left; settings: dose 32 µg/ml
Staphylococcus aureus [3] = test: Antimicrobial activity against Staphylococcus aureus ATCC 29213 assessed as inhibition of visible microbial growth incubated for 18 hrs by broth microdilution method; type: functional
Pseudomonas aeruginosa [4] = test: In vivo antibacterial activity against multidrug resistant Pseudomonas aeruginosa infected in acute peritonitis C57BL/6 mouse model assessed as increase in mouse survival at 5 to 20 mg/kg, ip measured after 12 hrs; type: functional, organism-based; settings: dose 5-20 mg/kg
[5] = Hepatotoxicity in female C57BL/6 mouse assessed as change in ALT level at 20 mg/kg, ip administered daily and measured for 5 days; type: toxicity, organism-based; settings: in vivo, 120 h, time 5 day
Pseudomonas aeruginosa [6] = test: Antimicrobial activity against multidrug resistant Pseudomonas aeruginosa assessed as inhibition of visible microbial growth incubated for 18 hrs by broth microdilution method; type: functional
Pseudomonas aeruginosa [7] = test: In vivo antibacterial activity against multidrug resistant Pseudomonas aeruginosa infected in acute peritonitis C57BL/6 mouse model assessed as reduction in pulmonary edema at 5 to 20 mg/kg, ip measured after 12 hrs by H and E staining based analysis; type: functional, organism-based; settings: dose 5-20 mg/kg
Pseudomonas aeruginosa [8] = test: Drug resistance, ratio of MIC for multidrug resistant Pseudomonas aeruginosa after 16 passages to MIC for multidrug resistant Pseudomonas aeruginosa after first exposure; type: functional
[9] = Stability in 25% human plasma assessed as compound remaining measured after 24 hrs by RP-HPLC analysis; type: ADME, cell-free; settings: 25% plasma, read-out: Stability
[10] = Cytotoxicity against human LO2 cells assessed as survival rate at 64 microg/ml measured after 24 hrs by CCK-8 assay relative to control; type: toxicity, cell-based, L02; settings: at 64 µg/mL, read-out: Survival
Pseudomonas aeruginosa [11] = test: Induction of morphological changes in multidrug resistant Pseudomonas aeruginosa assessed as presence of cellular debris at 16 microg/ml incubated for 1 hrs by SEM analysis; type: functional, organism-based; settings: dose 16.0 µg/ml
Acinetobacter baumannii = test: Antimicrobial activity against multidrug resistant Acinetobacter baumannii assessed as inhibition of visible microbial growth incubated for 18 hrs by broth microdilution method; type: functional
[12] = Hemolytic activity in human red blood cell assessed as hemolysis at 128 microg/ml measured after 1 hrs by microplate reader assay relative to control; type: toxicity, cell-based, Erythrocyte; settings: red blood cells, at 128 µg/mL, read-out: Activity
Cell membrane [13] = test: Disruption of cell membrane in multidrug resistant Staphylococcus aureus assessed as increase in red fluorescence at 16 microg/mL incubated after 2 hrs by SYTO9/PI double staining based fluorescence confocal microscopic analysis; type: subcellular; settings: dose 16.0 µg/ml
[14] = Toxicity in female C57BL/6 mouse assessed as effect on body weight at 20 mg/kg, ip administered daily and measured for 5 days; type: organism-based; settings: in vivo, 120 h, time 5 day
Pseudomonas aeruginosa [15] = test: In vivo antibacterial activity against multidrug resistant Pseudomonas aeruginosa infected in acute peritonitis C57BL/6 mouse model assessed as reduction in tubular dilation at 5 to 20 mg/kg, ip measured after 12 hrs by H and E staining based analysis; type: functional, organism-based; settings: dose 5-20 mg/kg
Staphylococcus aureus [16] = test: Antimicrobial activity against multidrug resistant Staphylococcus aureus assessed as inhibition of visible microbial growth incubated for 18 hrs by broth microdilution method; type: functional
Pseudomonas aeruginosa [17] = test: In vivo antibacterial activity against multidrug resistant Pseudomonas aeruginosa infected in acute peritonitis C57BL/6 mouse model assessed as decrease in IL-6 level in serum at 5 to 20 mg/kg, ip measured after 12 hrs by ELISA; type: functional, organism-based; settings: dose 5-20 mg/kg
Cell membrane [18] = test: Induction of outer cell membrane permeabilization in multidrug resistant Pseudomonas aeruginosa assessed as increase in fluorescence intensity at >16 microg/ml measured for 12 mins by NPN uptake assay; type: subcellular; settings: dose > 16.0 µg/ml
Pseudomonas aeruginosa [19] = test: Antimicrobial activity against multidrug resistant Pseudomonas aeruginosa at 1.9 to 500 microg/ml in presence of phosphatidylglycerol acid by checkerboard microdilution assay; type: functional, organism-based; settings: dose 1.9-500 µg/ml
[20] = Toxicity in female C57BL/6 mouse assessed as histopathological change in spleen at 20 mg/kg, ip administered daily and measured for 5 days by H and E staining based analysis; type: organism-based; settings: in vivo, 120 h, time 5 day
[21] = Toxicity in female C57BL/6 mouse assessed as histopathological change in heart at 20 mg/kg, ip administered daily and measured for 5 days by H and E staining based analysis; type: organism-based; settings: in vivo, 120 h, time 5 day
[22] = Toxicity in female C57BL/6 mouse assessed as effect on body weight at 5 to 20 mg/kg, ip administered daily and measured for 5 days; type: organism-based; settings: in vivo, 120 h, dose 5-20 mg/kg, time 5 day
Cell membrane [23] = test: Induction of outer cell membrane permeabilization in multidrug resistant Pseudomonas aeruginosa assessed as increase in fluorescence intensity measured for 12 mins by NPN uptake assay; type: subcellular; settings: dose 4-32 µg/ml
Pseudomonas aeruginosa [24] = test: Antibacterial activity against multidrug resistant Pseudomonas aeruginosa assessed as reduction in bacterial growth at 32 microg/mL by bactericidal kinetic assay; type: functional, organism-based; settings: dose 32.0 µg/ml, time 0.5-4 hrs
[25] = Nephrotoxicity in female C57BL/6 mouse assessed as change in BUN level at 20 mg/kg, ip administered daily and measured for 5 days; type: toxicity, organism-based; settings: in vivo, 120 h, time 5 day
Staphylococcus aureus [26] = test: Drug resistance, ratio of MIC for multidrug resistant Staphylococcus aureus after 16 passages to MIC for multidrug resistant Staphylococcus aureus after first exposure; type: functional
Escherichia coli [27] = test: Antimicrobial activity against multidrug resistant Escherichia coli assessed as inhibition of visible microbial growth incubated for 18 hrs by broth microdilution method; type: functional
Staphylococcus aureus [28] = test: Induction of morphological changes in multidrug resistant Staphylococcus aureus assessed as presence of cellular debris at 16 microg/ml incubated for 1 hrs by SEM analysis; type: functional, organism-based; settings: dose 16.0 µg/ml
Staphylococcus aureus [29] = test: Induction of morphological changes in multidrug resistant Staphylococcus aureus assessed as effect on cell integrity at 16 microg/ml incubated for 1 hrs by SEM analysis; type: functional, organism-based; settings: dose 16.0 µg/ml
[30] = Cytotoxicity against HEK293T cells assessed as survival rate at 64 microg/ml measured after 24 hrs by CCK-8 assay relative to control; type: toxicity, cell-based, HEK-293T; settings: human, at 64 µg/mL, read-out: Survival
Cell membrane [31] = test: Disruption of cell membrane in multidrug resistant Pseudomonas aeruginosa assessed as increase in red fluorescence at 16 microg/mL incubated after 2 hrs by SYTO9/PI double staining based fluorescence confocal microscopic analysis; type: subcellular; settings: dose 16.0 µg/ml
Staphylococcus aureus [32] = test: Antibacterial activity against multidrug resistant Staphylococcus aureus assessed as reduction in bacterial growth at 32 microg/mL by bactericidal kinetic assay; type: functional, organism-based; settings: dose 32.0 µg/ml, time 0.5-4 hrs
Pseudomonas aeruginosa [33] = test: Antimicrobial activity against multidrug resistant Pseudomonas aeruginosa assessed as inhibition of bacterial growth at >=125 microg/ml in presence of lipoteichoic acid by checkerboard microdilution assay; type: functional, organism-based; settings: dose >= 125.0 µg/ml
Pseudomonas aeruginosa [34] = test: In vivo antibacterial activity against multidrug resistant Pseudomonas aeruginosa infected in acute peritonitis C57BL/6 mouse model assessed as decrease in TNF-alpha level in serum at 5 to 20 mg/kg, ip measured after 12 hrs by ELISA; type: functional, organism-based; settings: dose 5-20 mg/kg
Pseudomonas aeruginosa [35] = test: In vivo antibacterial activity against multidrug resistant Pseudomonas aeruginosa infected in acute peritonitis C57BL/6 mouse model assessed as reduction in bacterial load in kidney at 10 to 20 mg/kg, ip measured after 12 hrs; type: functional, organism-based; settings: dose 10-20 mg/kg

CC(C)C[C@H](NC(=O)CN)C(=O)N[C@@H](CCCNC(=N)N)C(=O)N[C@@H](CCN)C(=O)N[C@@H](Cc1c[nH]c2ccccc12)C(=O)N[C@@H](CC(C)C)C(=O)N[C@@H](CCCNC(=N)N)C(=O)N[C@@H](CCN)C(=O)N[C@@H](Cc1ccccc1)C(=O)N[C@@H](CCN)C(=O)N[C@@H](CCN)C(=O)N[C@@H](Cc1ccccc1)C(=O)N[C@@H](Cc1c[nH]c2ccccc12)C(=O)O (H-GLR[Dab]WLR[Dab]F[Dab][Dab]FW-OH)
MIC (Escherichia coli [1]): 4.8 µM | Activity (Pseudomonas aeruginosa [2]): 100% | MIC (Staphylococcus aureus [3]): 4.8 µM | Activity (Pseudomonas aeruginosa [4]): Active | Activity [5]: Non-toxic | MIC (Pseudomonas aeruginosa [6]): 4.8 µM | Activity (Pseudomonas aeruginosa [7]): Active | Ratio (Pseudomonas aeruginosa [8]): <2 | remaining at 24 h [9]: 40% | viability at 24 h, 64 µg/mL [10]: > 80% | Activity (Pseudomonas aeruginosa [11]): Active | MIC (Acinetobacter baumannii): 4.8 µM | hemolysis at 1 h, 128 µg/mL [12]: < 10% | Activity (Cell membrane [13]): Active | Activity [14]: Toxic | Activity (Pseudomonas aeruginosa [15]): Active | MIC (Staphylococcus aureus [16]): 4.8 µM | Activity (Pseudomonas aeruginosa [17]): Active | Activity (Cell membrane [18]): Active | Activity (Pseudomonas aeruginosa [19]): inactive | Activity [20]: Non-toxic | Activity [21]: Non-toxic | Activity [22]: Non-toxic | Activity (Cell membrane [23]): Active | Activity (Pseudomonas aeruginosa [24]): Time-dependent-effect | Activity [25]: Non-toxic | Ratio (Staphylococcus aureus [26]): <2 | MIC (Escherichia coli [27]): 4.8 µM | Activity (Staphylococcus aureus [28]): Active | Activity (Staphylococcus aureus [29]): Active | viability at 24 h, 64 µg/mL [30]: > 80% | Activity (Cell membrane [31]): Active | Activity (Staphylococcus aureus [32]): Time-dependent-effect | Activity (Pseudomonas aeruginosa [33]): Active; Modest Inhibition Observed | Activity (Pseudomonas aeruginosa [34]): Active | Activity (Pseudomonas aeruginosa [35]): Active
